Experiments:
[1] = test system: Macrophage inflammatory protein-2 (MIP-2), also designated chemokine (C-X-C motif) ligand 2 (CXCL2); experiment: MIP-2 gene expression (microarray) in balloon-injured rat carotid artery; type: in vivo; details: for effect on MIP-2 gene expression (in words): 5 mg/kg of each drug s.c. 60 minutes before injury, 8 hours after injury, versus saline control; for mean MIP-2 signal intensity: male Sprague-Dawley rats, 5 mg/kg of each drug s.c. 60 minutes before carotid balloon injury, tissue taken 8 hours after injury, 3 rats per group, saline control 203
[2] = test system: Platelet derived growth factor, alpha (PDGFa); experiment: PDGFa gene expression (microarray) in balloon-injured rat carotid artery; type: in vivo; details: for effect on PDGFa gene expression (in words): 5 mg/kg of each drug s.c. 60 minutes before injury, 8 hours after injury, versus saline control; for mean PDGFa signal intensity: male Sprague-Dawley rats, 5 mg/kg of each drug s.c. 60 minutes before carotid balloon injury, tissue taken 8 hours after injury, 3 rats per group, saline control 528
[3] = test system: MonoMac-6 (MM6) cells; experiment: MonoMac-6 macrophage proliferation (WST-1 reagent); type: cell-based, human; details: 48 hours; for inhibitory effect on MM6 proliferation at 10 μM (in words): WST-1, n=5, data not shown; for inhibition at 100 µM: Homo sapiens, MONO-MAC-6, 100 μM final concentration of each drug, WST-1, mean value n=5, versus untreated cells
Method: Cells from the human macrophage cell-line MonoMac-6 (MM6) (Ziegler-Heitbrock et al, Int. J. Cancer, 41, 456 (1988)) were cultured (37° C./5% CO2) in RPMI-1640 medium supplemented with 1 mM sodium pyruvate, 1×nonessential amino acids, 1-100 μg/mL insulin, 1 mM oxalacetic acid, 100 units/mL penicillin, 100 μg/mL streptomycin and 10% (v/v) fetal bovine serum. At the start of the experiment, MM6 cells were seeded in 96-well plates at a density of 1×10^5 cells/mL (100 μl per well). Proliferation of the MM6 cells was measured using the Cell Proliferation Reagent WST-1 (Roche Diagnostics Scandinavia AB, Bromma, Sweden) or by cell counting using a microscope. The WST-1 reagent is designed to be used for spectrophotometric quantification of e.g. cell growth in proliferation assays and was used according to the manufacturers' instructions. […] Stock solutions of pemirolast (potassium salt purchased from American Custom Chemicals Corporation, San Diego, USA) and ramatroban (purchased from Cayman Chemical, Ann Arbor, Mich., USA as free acid and transferred into sodium salt by adding one equivalent of aqueous NaOH) were made in sterile saline.
The effects of pemirolast and/or ramatroban (added at the start of the experiments) on MM6 cell proliferation were studied 48 hours after start of the experiments using the WST-1 reagent described above.

SMILES: Cc1cccn2c(=O)c(-c3nnn[nH]3)cnc12 [pemirolast]
- effect on MIP-2 gene expression (in words) [1]: did not reduce MIP-2 gene expression levels
- mean MIP-2 signal intensity [1]: 710
- effect on PDGFa gene expression (in words) [2]: did not reduce PDGFa gene expression levels
- mean PDGFa signal intensity [2]: 800
- inhibitory effect on MM6 proliferation at 10 μM (in words) [3]: very similar to that of 100 μM of pemirolast
- inhibition at 100 µM [3]: 9.4%

SMILES: O=C(O)CCn1c2c(c3ccccc31)C[C@H](NS(=O)(=O)c1ccc(F)cc1)CC2 [ramatroban]
- effect on MIP-2 gene expression (in words) [1]: did not reduce MIP-2 gene expression levels
- mean MIP-2 signal intensity [1]: 326
- effect on PDGFa gene expression (in words) [2]: did not reduce PDGFa gene expression levels
- mean PDGFa signal intensity [2]: 566
- inhibitory effect on MM6 proliferation at 10 μM (in words) [3]: less that that of 100 μM of ramatroban
- inhibition at 100 µM [3]: 16.8%
